Legend:
[1] = tested on: HO-1 and NQO-1; assay: Western blot of HO-1 and NQO-1 in HUVECs; type: cell-based, human; details: ANM 10 μM or RES 5 μM + HG
Experimental: The intracellular ROS level is quantified by utilizing DCFH-DA assay. […] However, treatment of HUVECs with ANM resulted reduced ROS levels (6.1-fold), compared with HUVECs in HG that are not treated with ANM. In addition, in FIG. 9G, western blot analysis is performed to determine the protein expression levels of HO-1 and NQO-1.
(§1) Cells are lysed by either RIPA lysis buffer or nuclear and cytoplasmic extraction reagents (Thermo Fisher Scientific). Protein concentrations are determined by Bio-Rad protein assay reagent (Bio-Rad Laboratories, Hercules, Calif.). Equal amounts of protein samples (60 μg) are separated by 7-12% SDS-PAGE and the separated proteins are transferred onto polyvinylidene […] (PVDC) membrane overnight. The transferred protein membranes are blocked with 5% non-fat dried milk for 30 min, followed by incubation with specific primary antibodies overnight, and either horseradish peroxidase-conjugated goat anti-rabbit or anti-mouse antibodies for 2 h. The blots are detected using VL Chemi-Smart 3000 (Viogene Biotek, Sunnyvale, Calif.) with the enhanced chemiluminescence (ECL) western blotting reagent (Millipore, Billerica, Mass.).

[2] = tested on: wild-type C. elegans; assay: C. elegans lifespan assay; type: in vivo, Caenorhabditis elegans; details: ANM 10 μM or RES 438 μM vs control
Experimental: It has been well documented that high glucose levels decrease the life span of C. elegans by increasing ROS formation and advance glycation end-product modification of mitochondrial proteins. Therefore, it is further investigated whether ANM has a protective effect against hyperglycemia-induced oxidative stress as well as anti-aging effects. Worms are incubated with high glucose (50 mM) with or without ANM […], and controlled for life span evaluation. In FIG. 8B, effect of ANM on the life span of C. elegans under hyperglycemic condition is examined. Age synchronized L1 larvae are transfected to NGM plates which contain HG (50 mM) with or without ANM (10 μM) and worms are developed to adulthood. The survival rate is scored everyday and is expressed as a percentage of survival. […] Results are expressed as mean±S.E.M of three independent experiments. Statistical significance is set at ^ϕP<0.05 as compared to control vs. HG, *P<0.05 as compared to HG vs. HG+sample and ̂P<0.05 as compared to control vs. samples.
Control worms are treated with 0.01% DMSO. All worms are kept 20° C. to develop adulthood. After 6 days, worms are transferred to plates containing glucose are applicable. Surviving and dead animals are counted daily (starting from the first day of adulthood) until all worms had died. […] Worms suffering from internal hatch (a defect in egg-laying) and those that crawled off the NGM plate are not included in the life-span assay. During the reproductive period, adult worms are transferred to fresh NGM plates every day during the progeny production period and then every other day thereafter. Life span assay result is obtained from three independent assays.

[3] = tested on: SIRT-1, SIRT-3, SIRT-6; assay: Western blot of SIRT proteins and phos-SIRT-1 in HNDFs; type: cell-based, human; details: ANM or RES + HG, 72 h
Experimental: Total cell lysate is extracted and subjected to western blot analysis to monitor SIRT-1, SIRT-3, SIRT-6 protein levels.
The protein expression levels of SIRT-1, SIRT-6, p21^CIP1, SMP30, p53, FoxO and acetylation of p53 and FoxO1 are determined by western blot analysis.
To further understand the regulation of SIRT-1 by ANM, the effect of ANM on SIRT-1 activation and protein stability is examined under hyperglycemic conditions. In FIG. 7I, cells are incubated with JNK/SAPK or p38 MAPK inhibitors SP600125 (SP, 30 μM) and SB203580 (SB, 30 μM) in the presence of HG for 72 h. The protein expression levels of phos-SIRT-1 and SIRT-1 are determined by western blotting. Results are expressed as mean±S.E.M of three independent experiments. Statistical significance is set at ^ϕP<0.05 as compared to NG vs. HG and *P<0.05 as compared to HG vs. samples. Previous studies have shown that hyperphosphorylation of SIRT-1 at serine 47 (Ser47) is correlated with enhanced endothelial senescence. In addition, persistent activation of JNK1/2 by multiple factors including hyperglycemia induces extensive SIRT-1 proteasome degradation followed by phosphorylation at Ser47. […] Therefore, it is hypothesized that ANM-mediated suppression of JNK1/2 and p38 MAPK activation may have a functional role in the stability of SIRT-1 protein.
as §1

[4] = tested on: SIRT-1, SIRT-3 and SIRT-6; assay: RT-PCR/Q-PCR of SIRT genes in HNDFs; type: cell-based, human; details: RES, 72 h, no HG
Text: As shown in the figures, to determine whether ANM regulates HNDF senescence through a SIRT-1-mediated pathway, expression levels of SIRT genes SIRT-1, SIRT-3 and SIRT-6 are is examined.
Total RNA is extracted and subjected to Q-PCR analysis to monitor SIRT-1, SIRT-3 and SIRT-6 expression. Relative mRNA levels are normalized by β-actin mRNA. Previous studies have shown that exposure of endothelial cells to HG rapidly decreases levels of expression of SIRT genes.
Total RNA is extracted from cultured HNDFs using Trizol Reagent (Thermo Fisher Scientific). Q-PCR analysis is performed using Applied Biosystems detection instruments and software. Forward and reverse primers (10 μM), and the working solution SYBR green, is used as a PCR master mix, under the following conditions: 96° C. for 3 minutes followed by 40 cycles at 96° C. for 1 minute, 50° C. for 30 seconds and 72° C. for 90 seconds. GAPDH is used as an internal standard to control for variability in amplification because of differences in starting mRNA concentrations. The copy number of each transcript is calculated as the relative copy number normalized by GAPDH copy number.

[5] = tested on: HNDFs; assay: SA-β-gal senescence assay in HG-induced HNDFs; type: cell-based, human; details: ANM 10 μM or RES + HG, 72 h
Experimental: Next, the protective effects of antcins on HG-induced HNDF senescence are examined. In FIG. 2B, cells were incubated with ANA (10 μM), ANH (10 μM) and ANM (10 μM) in the presence of HG (30 mM) for 72 h. Cellular senescence is determined by SA-β-gal activity. […] After cells are co-incubated with HG and antcins (ANA, ANH and ANM) for 72 h, senescence is measured by SA-β-gal assay.
Therefore, in order to examine whether the ROS inhibitory effect may be extended to suppress HG-induced senescence, HG-induced senescenece eliminated by ANM is examined. In FIG. 4B, HNDFs are incubated with ANM (10 μM) or NAC (100 μM) in the presence or absence of HG (30 mM) for 72 h. Cellular senescence is determined by SA-β-gal assay. […] As is shown, cells are co-incubated with HG and ANM or NAC for 72 h.
Senescence-associated β-galactosidase (SA-β-gal) activity is determined in formaldehyde-fixed histochemical staining kit according to the manufacturer's instructions (Cell Signaling Technology, Danvers, Calif.). Briefly, cells are grown in 6-well plates at a density of 5×10^4 cells/well, and incubated with HG or test samples for 48 h (HUVECs) or 72 h (HNDFs). After incubation, cells are stained with SA-β-gal staining solution at pH 6.0 overnight and then the development of blue staining is observed and photographed under a bright-field microscope (Motic Electric Group, Xiamen, P.R. China).

Oc1ccc(C=Cc2cc(O)cc(O)c2)cc1 [RES, resveratrol, reference compound]
HO-1 expression in HUVECs in HG [1]: significantly increase | life span of C. elegans under normal condition [2]: highly comparable | HG-induced SIRT-1 phosphorylation at Ser47 [3]: significantly attenuates | SIRT-6 level (RT-PCR) [4]: remarkable increase | SA-β-gal activity, SIRT-1 siRNA transfected cells [5]: remains partially elevated
